Experimental findings from ChEMBL document CHEMBL3351650, “Anti-tyrosinase, antioxidant, and antibacterial activities of novel 5-hydroxy-4-acetyl-2,3-dihydronaphtho[1,2-b]furans” (Eur J Med Chem, 2014) are described below.

Data set [1] has as its system Staphylococcus aureus. Briefly: Antibacterial activity against Staphylococcus aureus KCTC-1916 after 24 hrs by twofold dilution method. The note with it: KCTC-1916, 24 h. Type of data set: functional.
The target of data set [2] is T1, Tyrosinase (Agaricus bisporus, UniProt O42713).
T1 sequence (O42713 whole entry): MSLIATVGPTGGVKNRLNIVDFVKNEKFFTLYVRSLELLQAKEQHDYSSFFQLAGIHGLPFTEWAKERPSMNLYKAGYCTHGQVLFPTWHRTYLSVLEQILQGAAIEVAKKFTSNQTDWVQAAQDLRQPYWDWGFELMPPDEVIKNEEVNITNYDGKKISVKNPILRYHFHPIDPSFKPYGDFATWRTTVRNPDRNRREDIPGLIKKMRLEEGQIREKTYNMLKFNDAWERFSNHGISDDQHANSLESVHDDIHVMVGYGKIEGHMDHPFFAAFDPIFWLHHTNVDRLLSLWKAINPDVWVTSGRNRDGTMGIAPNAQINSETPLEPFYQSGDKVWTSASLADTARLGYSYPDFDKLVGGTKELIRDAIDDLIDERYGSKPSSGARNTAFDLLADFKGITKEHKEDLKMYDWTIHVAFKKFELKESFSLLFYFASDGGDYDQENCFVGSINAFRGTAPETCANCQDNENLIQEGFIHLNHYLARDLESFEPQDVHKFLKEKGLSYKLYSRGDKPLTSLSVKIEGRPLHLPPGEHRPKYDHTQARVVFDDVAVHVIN
Description: Inhibition of mushroom tyrosinase using L-DOPA as substrate after 2 mins by spectrophotometry

Data set [3] deals with Escherichia coli. Briefly: microbe, parasite or virus in culture. The settings on record: KCTC-1924, 24 h.
Description: Antibacterial activity against Escherichia coli KCTC-1924 after 24 hrs by twofold dilution method
The target of data set [4] is T1, Tyrosinase. Briefly: Competitive inhibition of mushroom tyrosinase using L-DOPA as substrate after 2 mins by Lineweaver-Burk plot.

Converted amounts (≈) assume the structure as drawn.

In turn, `CCOC1Cc2c(C(C)=O)c(O)c3ccccc3c2O1` (stereo unspecified) gave an IC50 of 25.11 µg/mL (≈ 92.2 µM). The compound also gave an MIC in data set [1] of 0.5 µg/mL (≈ 1.84 µM). The compound further had an IC50 in data set [2] of 305 µM. The compound also displayed an MIC in data set [3] of 16 µg/mL (≈ 58.8 µM).
Take `CCCOC1Cc2c(C(C)=O)c(O)c3ccccc3c2O1` (stereo unspecified): the IC50 was 3.33 µg/mL (≈ 11.6 µM). The same compound returned an inhibitory constant (Ki) in data set [4] of 11.2 µM. Besides, the MIC in data set [1] worked out at 0.5 µg/mL (≈ 1.75 µM). The compound further had an IC50 in data set [2] of 31.1 µM. For the same compound, the MIC in data set [3] is 0.5 µg/mL (≈ 1.75 µM).
Compound `CC(=O)c1c2c(c3ccccc3c1O)OC(OCC(C)C)C2` (stereo unspecified) yielded an IC50 of 6.3 µg/mL (≈ 21 µM). Also, in data set [1], the MIC was 32 µg/mL (≈ 107 µM). This compound had an IC50 in data set [2] of 198 µM.
Take `CCCCOC1Cc2c(C(C)=O)c(O)c3ccccc3c2O1` (stereo unspecified): the half-inhibitory concentration (IC50) was found to be 5.01 µg/mL (≈ 16.7 µM). For the same compound, the MIC in data set [1] came to 8 µg/mL (≈ 26.6 µM). For the same compound, the IC50 in data set [2] was 232 µM. For the same compound, the MIC in data set [3] stood at 0.5 µg/mL (≈ 1.66 µM).
For `COC1(C)Cc2c(C(C)=O)c(O)c3ccccc3c2O1` (stereo unspecified), the IC50 turned out to be 31.47 µg/mL (≈ 116 µM). Further, the MIC in data set [1] turned out to be 0.5 µg/mL (≈ 1.84 µM). The compound further had an IC50 in data set [2] of more than 367 µM. For the same compound, the MIC in data set [3] was 16 µg/mL (≈ 58.8 µM).
For `CC(=O)c1c2c(c3ccccc3c1O)OC(C)(c1ccccc1)C2` (stereo unspecified), in that order: 77.62 µg/mL (≈ 244 µM), 32 µg/mL (≈ 101 µM), more than 314 µM and 2 µg/mL (≈ 6.28 µM).
In turn, `COc1ccc(C2Cc3c(C(C)=O)c(O)c4ccccc4c3O2)cc1` (stereo unspecified) displayed an IC50 of more than 100 µg/mL. In data set [1], this compound showed an MIC of 32 µg/mL (≈ 95.7 µM). Besides, the IC50 in data set [2] was more than 299 µM.
`CCO[C@@H]1Oc2c(c(C(C)=O)c(O)c3ccccc23)[C@@H]1C` (relative stereo): the IC50 was found to be 62.51 µg/mL (≈ 218 µM). In data set [1], this compound registered an MIC of 0.5 µg/mL (≈ 1.75 µM). For the same compound, in data set [2], the IC50 is more than 349 µM. In addition, the MIC in data set [3] turned out to be 32 µg/mL (≈ 112 µM).
Consider `CCO[C@H]1Oc2c(c(C(C)=O)c(O)c3ccccc23)[C@@H]1C` (relative stereo), for which the IC50 is more than 100 µg/mL. In data set [2], this compound gave an IC50 of 107 µM.
`CC(=O)c1c2c(c3ccccc3c1O)O[C@H]1OCC[C@@H]21` (relative stereo) had an IC50 of more than 100 µg/mL. Besides, the MIC in data set [1] was 8 µg/mL (≈ 29.6 µM). Also, the IC50 in data set [2] is more than 370 µM. The compound further displayed an MIC in data set [3] of 2 µg/mL (≈ 7.4 µM).
In the case of `CC(=O)c1c2c(c3ccccc3c1O)O[C@H]1OCCC[C@@H]21` (relative stereo), the IC50 is more than 100 µg/mL. The compound further displayed an MIC in data set [1] of 0.5 µg/mL (≈ 1.76 µM). Further, in data set [2], half-maximal inhibition (IC50) required 176 µM. Moreover, the MIC in data set [3] was 32 µg/mL (≈ 113 µM).
